Data set [1] addresses T1, glucocorticoid receptor (Homo sapiens, UniProt P04150).
T1 construct: containing 50-200 ug of A549 cell extract and 1.86 nM [^3H]-dexamethasone; host or cells: A549 human lung epithelial cells (sonicated cell extract)
T1 sequence (P04150 1-777): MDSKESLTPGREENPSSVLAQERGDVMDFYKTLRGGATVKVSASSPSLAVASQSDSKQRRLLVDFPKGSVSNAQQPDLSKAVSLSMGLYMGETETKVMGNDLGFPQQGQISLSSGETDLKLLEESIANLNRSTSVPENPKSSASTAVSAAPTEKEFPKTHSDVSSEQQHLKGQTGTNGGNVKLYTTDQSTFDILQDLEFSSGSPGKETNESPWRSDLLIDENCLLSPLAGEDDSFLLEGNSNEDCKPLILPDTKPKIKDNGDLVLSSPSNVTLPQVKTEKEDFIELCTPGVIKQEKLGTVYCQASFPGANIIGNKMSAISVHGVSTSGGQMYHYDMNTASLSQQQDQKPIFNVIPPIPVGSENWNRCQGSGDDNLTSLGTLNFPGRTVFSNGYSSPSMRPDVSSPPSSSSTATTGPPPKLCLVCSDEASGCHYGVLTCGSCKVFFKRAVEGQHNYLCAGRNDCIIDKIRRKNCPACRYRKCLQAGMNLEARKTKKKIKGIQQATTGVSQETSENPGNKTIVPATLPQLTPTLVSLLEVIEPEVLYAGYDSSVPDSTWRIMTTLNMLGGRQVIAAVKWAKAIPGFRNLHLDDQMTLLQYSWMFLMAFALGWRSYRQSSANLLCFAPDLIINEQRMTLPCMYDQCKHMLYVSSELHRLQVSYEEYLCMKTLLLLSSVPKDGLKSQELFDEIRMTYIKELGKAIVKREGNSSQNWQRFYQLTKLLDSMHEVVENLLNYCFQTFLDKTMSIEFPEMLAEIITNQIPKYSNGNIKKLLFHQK
In words: Glucocorticoid Receptor Binding Assay ([3H]-dexamethasone, A549 cell extract). To be noted: [3H]-dexamethasone binding, read-out: GR Ki. The gist of the method: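 Displacement of [3H]-dexamethasone (1.86 nM) from glucocorticoid receptor in sonicated A549 lung epithelial cell extracts, 16 h at 4 °C, pH 7.2 molybdate-containing buffer. Bound radioactivity was scintillation-counted after charcoal/dextran stripping of free ligand.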

In data set [2] the target is T2, human MR (Homo sapiens, UniProt P08235).
T2 construct: The full length human MR gene is cloned from a human kidney or human brain cDNA library; His tag from the pAcHLT vector (own knowledge); made in house; host or cells: Sf9 insect cells (baculovirus, pAcHLT transfer vector)
T2 sequence (P08235 1-984): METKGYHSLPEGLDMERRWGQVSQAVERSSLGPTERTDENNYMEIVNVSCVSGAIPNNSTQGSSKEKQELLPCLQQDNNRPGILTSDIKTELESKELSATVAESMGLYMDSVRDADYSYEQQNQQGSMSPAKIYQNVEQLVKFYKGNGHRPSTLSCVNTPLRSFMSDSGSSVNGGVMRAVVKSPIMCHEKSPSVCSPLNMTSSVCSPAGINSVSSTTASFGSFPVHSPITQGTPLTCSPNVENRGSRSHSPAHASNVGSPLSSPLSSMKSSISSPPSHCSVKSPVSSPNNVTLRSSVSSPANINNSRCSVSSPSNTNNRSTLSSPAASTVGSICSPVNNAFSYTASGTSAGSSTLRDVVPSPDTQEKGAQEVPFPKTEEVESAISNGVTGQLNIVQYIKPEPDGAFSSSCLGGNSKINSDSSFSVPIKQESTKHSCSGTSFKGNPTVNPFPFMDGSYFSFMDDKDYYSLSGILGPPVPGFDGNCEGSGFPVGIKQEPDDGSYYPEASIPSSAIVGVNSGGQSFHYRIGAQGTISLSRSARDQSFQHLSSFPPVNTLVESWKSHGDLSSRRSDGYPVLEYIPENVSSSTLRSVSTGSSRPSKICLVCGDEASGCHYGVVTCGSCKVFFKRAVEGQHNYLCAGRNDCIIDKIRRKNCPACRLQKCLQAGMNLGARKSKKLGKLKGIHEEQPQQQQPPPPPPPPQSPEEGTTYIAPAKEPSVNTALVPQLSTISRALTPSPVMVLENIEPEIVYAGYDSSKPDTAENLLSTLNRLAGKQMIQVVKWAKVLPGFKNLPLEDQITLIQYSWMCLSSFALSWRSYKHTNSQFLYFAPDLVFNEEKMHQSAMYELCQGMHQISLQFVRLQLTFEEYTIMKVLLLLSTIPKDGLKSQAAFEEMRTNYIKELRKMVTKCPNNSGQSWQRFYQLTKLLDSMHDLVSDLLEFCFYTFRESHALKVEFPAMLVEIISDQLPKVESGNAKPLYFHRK
In words: Mineralocorticoid Receptor Binding Assay ([3H]-aldosterone). To be noted: [3H]-aldosterone binding, human MR expressed in Sf9 cells; read-out: MR Ki. The gist of the method: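 Receptor source: freeze-thaw lysate of baculovirus-infected Sf9 cells carrying full-length human MR, 20-25 μg protein. Incubation ~16 h at 4 °C with shaking, pH 7.5 buffer containing 30 mM sodium molybdate and 10% glycerol.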

`CCS(=O)(=O)Nc1cccc(C=C2c3ccccc3CCc3ccccc32)c1` [Example 91, Ethanesulfonic acid [3-(10,11-hydro-dibenzo[a,d]cyclohepten-5-ylidenemethyl)-phenyl]-amide]: the melting point (commonly the temperature, or range, at which the solid turns liquid) was determined as 180.2 °C. The Ki (commonly the dissociation constant of the complex between target and ligand, obtained from inhibition or displacement) in data set [1] is less than 500 nM. In addition, the Ki in data set [2] was less than 500 nM.
As for `Oc1cccc(C=C2c3ccccc3CCc3ccccc32)c1F` [Example 153, 3-(10,11-Dihydro-dibenzo[a,d]cyclohepten-5-ylidenemethyl)-2-fluoro-phenol], the melting point came out at 143.2 °C. Also, in data set [1], the Ki was less than 1000 nM. Also, in data set [2], the Ki was less than 500 nM.
Molecule `Nc1ccc(C=C2c3ccccc3CCc3ccccc32)cc1` [Example 88, 4-(10,11-Dihydro-dibenzo[a,d]cyclohepten-5-ylidenemethyl)-phenylamine] showed a melting point greater than 250 °C. Besides, in data set [1], the Ki was less than 1000 nM. Moreover, the Ki in data set [2] is less than 500 nM.
The corresponding values for `N#Cc1cccc(C=C2c3ccccc3CCc3ccccc32)c1` [Example 81, 3-(10,11-Dihydro-dibenzo[a,d]cyclohepten-5-ylidenemethyl)-benzonitrile] are 115.7 °C, less than 10000 nM and less than 500 nM.
The corresponding values for `Oc1cccc(C=C2c3cccc(F)c3CCc3c(F)cccc32)c1` [Example 202, 3-(1,9-Difluoro-10,11-dihydro-dibenzo[a,d]cyclohepten-5-ylidenemethyl)-phenol] are 129.5 °C, less than 1000 nM and less than 500 nM.
For `O=Cc1ccccc1C=C1c2ccccc2CCc2ccccc21` [Example 69, 2-(10,11-Dihydro-dibenzo[a,d]cyclohepten-5-ylidenemethyl)-benzaldehyde], the melting point turned out to be 198.9 °C. Moreover, the Ki in data set [1] is less than 500 nM. For the same molecule, the Ki in data set [2] is less than 500 nM.
Consider `CNS(=O)(=O)c1ccccc1C=C1c2ccccc2CCc2ccccc21` [Example 4, 2-(10,11-Dihydro-dibenzo[a,d]cyclohepten-5-ylidenemethyl)-N-methyl-benzenesulfonamide], for which the melting point came out at 149 °C. For the same molecule, the Ki in data set [1] was less than 1000 nM. Further, in data set [2], the Ki was less than 500 nM.
The molecule `Oc1cccc(CC2c3ccccc3CCc3ccccc32)c1` [Example 126, 3-(10,11-Dihydro-5H-dibenzo[a,d]cyclohepten-5-ylmethyl)-phenol] displayed a melting point of 76.6 °C. The inhibition constant Ki in data set [1] is less than 500 nM. The Ki in data set [2] is less than 500 nM.
As to `CNS(=O)(=O)c1ccc(C=C2c3ccccc3CCc3ccccc32)cc1` [Example 27, 4-(10,11-Dihydro-dibenzo[a,d]cyclohepten-5-ylidenemethyl)-N-methyl-benzenesulfonamide], the melting point is 189.7 °C. Also, in data set [1], the Ki is less than 1000 nM. The Ki in data set [2] is less than 500 nM.
Take `CS(=O)(=O)Nc1cccc(C=C2c3ccc(Cl)cc3CCc3cc(Cl)ccc32)c1` [Example 182, N-[3-(2,8-Dichloro-10,11-dihydro-dibenzo[a,d]cyclohepten-5-ylidenemethyl)-phenyl]-methanesulfonamide]: the melting point is 182.4 °C. In data set [1], the Ki was less than 500 nM. Further, in data set [2], the Ki was less than 500 nM.
Molecule `COc1cccc(C=C2c3ccccc3CCc3ccccc32)c1` [Example 32, 5-(3-Methoxy-benzylidene)-10,11-dibydro-5H-dibenzo-[a,d]cycloheptene] displayed a melting point of 83 °C. Moreover, the Ki in data set [1] was less than 1000 nM. Also, the Ki in data set [2] is less than 500 nM.
`O=Cc1cccc(C=C2c3ccccc3CCc3ccccc32)c1` [Example 70, 3-(10,11-Dihydro-dibenzo[a,d]cyclohepten-5-ylidenemethyl)-benzaldehyde]: the melting point came out at 86.7 °C. Further, the Ki in data set [1] is less than 1000 nM. For the same molecule, the Ki in data set [2] is less than 500 nM.
In turn, `N#Cc1ccccc1C=C1c2ccccc2CCc2ccccc21` [Example 80, 2-(10,11-Dihydro-dibenzo[a,d]cyclohepten-5-ylidenemethyl)-benzonitrile] registered a melting point of 185.4 °C. For the same molecule, in data set [1], the Ki is less than 500 nM. Further, in data set [2], the inhibition constant (Ki) was less than 500 nM.
Take `COc1cccc(C=C2c3ccccc3CCc3ccccc32)c1OC` [Example 35]: the melting point amounted to 130.6 °C. Besides, the Ki in data set [1] is less than 500 nM. Moreover, the Ki in data set [2] was less than 500 nM.
In the case of `FC(F)c1ccccc1C=C1c2ccccc2CCc2ccccc21` [Example 71, 5-(2-Difluoromethyl-benzylidene)-10,11-dihydro-5H-dibenzo[a,d]cycloheptene], the melting point was 13.3 °C. In addition, the Ki in data set [1] is less than 500 nM. Moreover, the Ki in data set [2] is less than 500 nM.
Consider `OCc1ccccc1C=C1c2ccccc2CCc2ccccc21` [Example 74, [2-(10,11-Dihydro-dibenzo[a,d]cyclohepten-5-ylidenemethyl)-phenyl]-methanol], for which the melting point came to 121.8 °C. In addition, in data set [1], the Ki is less than 500 nM. Further, the Ki in data set [2] was less than 500 nM.
For the molecule `O=c1[nH]c2ccc(C=C3c4ccc(F)cc4CCc4cc(F)ccc43)cc2[nH]1` [Example 437, 5-(2,8-difluoro-10,11-dihydro-dibenzo[a,d]cyclohepten-5-ylidenemethyl)-1,3-dihydro-benzoimidazol-2-one], the melting point was 257 °C. In addition, the Ki in data set [1] was less than 1000 nM. For the same molecule, in data set [2], the inhibitory constant (Ki) is less than 500 nM.
`Oc1cccc(/C=C2/c3ccc(Cl)cc3CCc3cccnc32)c1` [Example 244, 3-(8-Chloro-5,6-dihydro-benzo[5,6]cyclohepta[1,2-b]pyridin-11-ylidenemethyl)-phenol] had a melting point of 221.2 °C. The inhibitory constant (Ki) in data set [1] was less than 10000 nM. In data set [2], the Ki is less than 500 nM.
Regarding `O=C(Nc1ccc(C=C2c3ccccc3CCc3ccccc32)cc1)c1ccncc1` [Example 117, N-[4-(10,11-Dihydro-dibenzo[a,d]cyclohepten-5-ylidenemethyl)-phenyl]-isonicotinamide], the melting point is 252.1 °C. The Ki in data set [1] was less than 500 nM. The Ki in data set [2] was less than 500 nM.
`Oc1ccc(C=C2c3ccccc3CCc3ccccc32)cc1` [Example 60, b-(10,11-Dihydro-dibenzo[a,d]cyclohepten-5-ylidenemethyl)-phenol] displayed a melting point of 56.9 °C. Besides, in data set [1], the Ki was less than 10000 nM. Also, in data set [2], the Ki was less than 500 nM.
In turn, `Oc1cccc(/C=C2\c3ccc(Cl)cc3CCc3cccnc32)c1` [Example 245, 3-(8-Chloro-5,6-dihydro-benzo[5,6]cyclohepta[1,2-b]pyridin-11-ylidenemethyl)-phenol] showed a melting point greater than 250 °C. The Ki in data set [1] was less than 10000 nM. Also, the Ki in data set [2] was less than 500 nM.
